Measured values: PubChem BioAssay AID2305 (GlaxoSmithKline (GSK), 2010)
Several values for one entry are separate records, joined by “and”; a condition that tells them apart may be missing. Identical values can stand only once.

Test system: P. falciparum 3D7 growth, pLDH absorbance
Test: blood-stage malaria parasite growth potency – strain 3D7, dose response (AID 2305)

SMILES | IC50
CC(NC(=O)NC1CCC(CCN2CCCc3ccccc32)CC1)c1cccc2ccccc12 (stereo not given) | 1020 nM
CCCCCCCc1cc(O)c2c3c(c(=O)oc2c1)CN(C)CC3 | 140 nM
O=c1cc(NCCCN(Cc2ccccc2)Cc2ccccc2)[nH]c2ccccc12 | 580 nM
COc1ccc(-c2ccc([N+](=O)[O-])cc2C(=O)NCC(C)Oc2ccc(C(F)(F)F)cc2)cc1 (stereo not given) | 550 nM
Cc1c2ccncc2c(C)c2c1[nH]c1cc(Cc3ccccc3)c(O)cc12 | 150 nM
C=CCOC(=O)N1CCC(CNCc2cccc(-c3ccc(-c4nc5ccccc5[nH]4)s3)c2)C1 (stereo not given) | 270 nM
c1cncc(Oc2ccc(Nc3ccnc4cc(-c5cccc(CNCCN6CCOCC6)c5)ccc34)cc2)c1 | 110 nM
Cc1cc2ccc(CNCCc3ccccc3Br)cc2nc1N | 510 nM
Cc1nc(Nc2cc(Cl)ccc2O)nc(Nc2cc(Cl)ccc2O)c1[N+](=O)[O-] | 30 nM
COc1cc2ncnc(Nc3ccc(OCc4ccccc4)c(I)c3)c2cc1OC | 710 nM
Cc1cc(N2CCC(NS(=O)(=O)c3ccccc3)CC2)nc(Nc2cccc(C#N)c2)n1 | 1350 nM
COc1ccc(-c2cccc(NC(=O)c3cccc(Cl)c3)c2)cc1CNC(C)C | 720 nM
CC[C@H]1CN2CC[C@H]1C[C@H]2[C@H](O)c1cc(-c2cccc(Cl)c2)nc2ccc(OC)cc12 | 170 nM
CC[C@H]1CN2CC[C@H]1C[C@H]2[C@H](O)c1cc(/C=C/c2ccc(F)cc2)nc2ccc(OC)cc12 | 30 nM
O=S(=O)(c1ccc(Cl)cc1Cl)N1CCCCC(c2ccc(C(F)(F)F)cc2)=N1 | 160 nM
FC(F)(F)c1ccc2nccc(NCc3ccccc3)c2c1 | 1150 nM
CCOc1ccc(C(=O)Nc2cc(Br)c3c(c2)CNCC3)cc1C(F)(F)F | 940 nM
Nc1nc2c(ncn2COC2COP(=O)(O)OC2)c(=O)[nH]1 (stereo not given) | 450 nM
COc1ccc(N2CCN(CCCCNC(=O)c3ccc(NC(=O)c4cc(Cl)cc(Cl)c4)cc3)CC2)c(OC)c1 | 300 nM
COc1cc(CCOc2c(C)nc(N)nc2N)cc(OC)c1OC | 20 nM
Cc1cccc(C(=O)Nc2ccnc(N3CCC(N(C)Cc4ccc(C#N)cc4)CC3)c2)c1 | 910 nM
CC(C)(C)c1ccc(C(=O)NC2CCC(CCN3CCc4ccc(S(C)(=O)=O)cc4CC3)CC2)cc1C(F)(F)F (stereo not given) | 1220 nM
COc1ccc2nc3cc(Cl)ccc3c(NCCN3CCN(C)CC3)c2c1 | 120 nM
CCN(CC)CCON=Cc1cc(C)c2[nH]c3ccc(OCc4ccccc4)cc3c2c1C | 970 nM
CS(=O)(=O)c1ccc2nc(NC(=O)c3csnn3)sc2c1 | 670 nM

SMILES | IC50
N#Cc1ccc2c(c1)CN(CCC1CCC(NC(=O)c3cc4cc(OC(F)(F)F)ccc4[nH]3)CC1)CC2 (stereo not given) | 780 nM
COc1ccccc1N(C)CCNc1cc(C)nc(Nc2ccccc2)n1 | 1070 nM
COc1cc(Cc2c(C)nc3nc(N)nc(N)c3c2C)c(Br)c(OC)c1OC | 400 nM
CCc1c(CCNCCCCCCNCCc2ccccc2)ccc(OC)c1OC | 800 nM
CCOc1c(C)cc(C(F)(F)F)cc1CNCCCNc1cc(=O)c2ccccc2[nH]1 | 160 nM
O=C(NC(=Cc1cccc([N+](=O)[O-])c1)c1nc2ccccc2[nH]1)c1cccc(Br)c1 | 620 nM
O=C(/C=C/c1ccc(Cl)c(Cl)c1)NCCCCCN1CCCN(C(=S)Nc2ccc(Cl)cc2)CC1 | 1130 nM
CCC(NC[C@@H](O)[C@H](Cc1ccccc1)NC(=O)c1cc(C2CCCC2)cc(N2CCCC2=O)c1)c1cccc(Cl)c1 (stereo not given in full) | 40 nM
O=C(Nc1nc(-c2cc(F)ccc2F)cs1)c1cncc(Br)c1 | 1080 nM
CC(=O)Nc1cccc(NC(=O)CSc2ccc(-c3nc4ccccc4[nH]3)cn2)c1 | 560 nM
O=S(=O)(c1c(Cl)cc(Cl)cc1Cl)N1CCCCC(c2ccc(Cl)cc2)=N1 | 400 nM
Cc1cc(NN=Cc2ccccc2[N+](=O)[O-])c2cc(C(F)(F)F)ccc2n1 | 750 nM
CCCCCCCNCCNc1cc(C)nc2ccccc12 | 390 nM
O=C(c1cccs1)N1CCN(c2ccc([N+](=O)[O-])c(NC3CC3)c2)CC1 | 770 nM
CCOc1ccc2c(NN=Cc3cc(OC)c(OC)c(OC)c3)cc(C)nc2c1 | 610 nM
Cc1cc(CN2CC[C@H](NC(=O)c3ccc(Cl)c(Cl)c3)C2)ccc1OC1CCN(Cc2ccccc2)CC1 | 910 nM
Cc1nnsc1C(=O)Nc1ccc(-c2ccc(-c3nc4ccccc4[nH]3)s2)cc1 | 820 nM
CC(C(=O)N1CCCC1)N1CCN(S(=O)(=O)c2ccc(C(C)(C)C)cc2)CC1 (stereo not given) | 640 nM
COC(=O)[C@@H](NC(=O)[C@@H](Nc1ccc(C#N)c2ccccc12)C(C)(C)C)c1ccc(O)cc1 | 780 nM
c1ccc([C@H]2CN3CCSC3=N2)cc1 | 620 nM
Oc1ccccc1CN(CCCN(Cc1ccccn1)Cc1ccccc1O)Cc1ccccn1 | 1060 nM
O=C(Nc1ccc(Cn2ncc(N3CCCNCC3)c(Cl)c2=O)cc1)Nc1ccc(F)cc1[N+](=O)[O-] | 1100 nM
COc1ccc(OC)c(Cc2cnc3nc(N)nc(N)c3c2C)c1 | 10 nM
CO/C(=C\C=C\c1cc2cc(Cl)c(Cl)cc2[nH]1)C(=O)NCCCN1CCN(c2cccc(OC)c2)CC1 | 840 nM
CC(C)c1ccc(CN2CCC(CNC(=O)c3cc(-c4cccc(F)c4)cs3)C2)cc1 (stereo not given) | 1660 nM

SMILES | IC50
CN(C)CCCOc1ccc(CCNCc2cccc(Oc3ccc(Cl)cc3)c2)cc1 | 890 nM
O=C1Nc2cccc3c2C1(CCCN1CCC(c2c[nH]c4cc(C(F)(F)F)ccc24)CC1)CCC3 (stereo not given) | 960 nM
CCC(C)CN1CCN(c2ccc(NC(=O)c3cccs3)cc2)CC1C (stereo not given) | 660 nM
CCN(CC)c1ccc2nc(N)nc(N)c2c1Cl | 30 nM
CCCCCc1cc(O)c2c(c1)OC(C)(C)c1ccncc1-2 | 760 nM
O=C(NC1CCN(c2ccnc3cc(Cl)ccc23)C1)c1ccc(C(F)(F)F)cc1 (stereo not given) | 140 nM
Cc1ccc(Nc2nc(C)cc(Nc3cccc(C#N)c3)n2)cc1 | 980 nM
COc1ccc2nc(C)cc(NN=Cc3ccccc3)c2c1 | 1030 nM
O=C(C=Cc1ccc(Cl)c(Cl)c1)NCCCCCN1CCC(CCNC(=O)/C=C/c2ccccc2)CC1 | 780 nM
C=C[C@]1(C)C[C@@H](OC(=O)CNC[C@@H](O)CN2C[C@H](c3ccnc4ccc(OC)nc34)OC2=O)[C@]2(C)[C@H](C)CC[C@]3(CCC(=O)[C@H]32)[C@@H](C)[C@@H]1O | 950 nM
Cc1noc(C)c1-c1ccc2c(Nc3ccccc3N3CCOCC3)c(C(=O)NCc3ccccc3)cnc2c1 | 1180 nM
Cc1onc(-c2c(F)cccc2Cl)c1C(=O)Nc1ccccc1I | 950 nM
O=C(Cc1ccccc1)NC(CCN1CCC(O)(c2cccc(C(F)(F)F)c2)CC1)c1ccc(Cl)c(Cl)c1 (stereo not given) | 860 nM
Cc1nc(C(C)Nc2nncc(-c3ccc(Cl)cc3)n2)cs1 (stereo not given) | 1330 nM
O=C(COc1ccc(Cl)c(Cl)c1)NCCCCCN1CCCN(C(=O)Nc2cc(Cl)cc(Cl)c2)CC1 | 1140 nM
COc1ccc2ncc(F)c(CCN3C[C@H](CNCc4nc5c(cc4Cl)OCC(=O)N5)[C@H](O)C3)c2n1 | 950 nM and 1280 nM and 830 nM
CN1CCN(c2ccnc3ccc(NC(=O)Nc4ccc5c(c4)CCC5=O)cc23)CC1 | 330 nM
Cc1ccc(C)c(C=CC(=O)NC2CCC(CN3CCC(c4c[nH]c5ccccc45)CC3)CC2)c1 (stereo not given) | 760 nM and 700 nM
CSC1=NC(=Nc2c(C)cccc2C)C2(CCCCC2)N1c1ccccc1Cl | 820 nM
NC(N)=NN=Cc1cc2ccccc2c2ccccc12 | 180 nM
CCCNc1ccc2nccc(CCN3CCC(NCc4ccc5c(c4)NC(=O)CS5)CC3)c2n1 | 580 nM
CC(C)(C)c1ccc2oc(=O)n(C3CCN(C(=O)c4ccc([N+](=O)[O-])o4)CC3)c2c1 | 820 nM
O=C(CSc1nc(-c2ccccc2Cl)ns1)Nc1ccc2c(c1)OCO2 | 990 nM
COc1ccc(CN(C2CC2)C(C)C(=O)c2[nH]c(C)c(C(C)=O)c2C)cc1 (stereo not given) | 1590 nM
COc1ccc(CN(C)Cc2cc(C(C)C)c(C)cc2O)cc1F | 650 nM

SMILES | IC50
CN1CCCN(Cc2cccc(-c3cccc(NS(=O)(=O)c4cccc5cccnc45)c3)c2)CC1 | 760 nM
CC1(C)N=C(N)N=C(N)N1c1ccc(Oc2ccccc2)cc1 | 340 nM
COc1ccc2nccc([C@@H](O)CN3CCC(NC(=O)CCC(=O)c4cc(C(C)(C)C)ccc4OC)CC3)c2c1 | 850 nM
Cc1cccc2[nH]c(-c3cccc(-c4cccc(NC(=O)C(C)CN5CCN(C)CC5)c4)c3)nc12 (stereo not given) | 540 nM
O=C(C=Cc1cn(-c2ccccc2)nc1-c1cccs1)N1CCN(c2ccncc2)CC1 | 720 nM
CCCNCc1c(O)ccc2c(CNCCC)c(O)ccc12 | 600 nM
Cc1c(CNCCCNc2cc(=O)c3ccccc3[nH]2)sc(C(F)F)c1Br | 870 nM
O=C(NCc1ccc(Cl)c(Cl)c1)c1ccc(C2CCN(Cc3ccc4nc[nH]c4c3)CC2)cc1 | 960 nM
CCc1ccnc2c(N3CCCC3=O)cc(C(=O)N[C@@H](Cc3ccccc3)[C@H](O)CNC3CCOCC3)cc12 | 380 nM
O=c1ccc(CNc2nc(NCCc3ccccc3)nc3cc(Cl)ccc23)c[nH]1 | 300 nM
Cc1c(OC(C)C)nc2ccccc2c1C(=O)N[C@H](c1cccc(F)c1)C1CC1 | 1090 nM
CCN(CCCN1CCCCC1)c1cc(C)nc(Nc2ccc(C)cc2Br)n1 | 170 nM
OC1CCCN(Cc2ccc(-c3ccc(-c4nc5ccc(F)cc5[nH]4)cc3)cc2)C1 (stereo not given) | 850 nM
COc1ccc(CC(C)NCC(O)c2ccc(Cl)c(Cl)c2)cc1 (stereo not given) | 720 nM
CCCCNCc1ccc(-c2nc(CN(CCCn3ccnc3)C(=O)C3COc4ccccc4O3)cs2)cc1 (stereo not given) | 890 nM
C[C@H]1CN(Cc2cccc(-c3cc(CNC(=O)c4cccc(CC5CCN(C)CC5)c4)ccc3F)c2)CCN1C | 1090 nM
O=C(/C=C/c1ccc(Cl)c(Cl)c1)NCCCCCN1CCC(NC(=O)c2ccc(F)cc2F)CC1 | 760 nM
Cc1ccc(Nc2nc(C)cc(N3CCN(c4ccccc4)CC3)n2)cc1 | 1530 nM
Cc1[nH]c(C)c(-c2ccc(Cl)cc2Cl)c(=O)c1Br | 1010 nM
CC1CN(Cc2ccc(-c3ccc(-c4nc5ccc(F)cc5[nH]4)s3)cc2)CC(C)O1 (stereo not given) | 880 nM
O=C(NCCN1CCCC1)c1cccc(Nc2nccc(Nc3ccc(Oc4ccccc4)cc3)n2)c1 | 650 nM
c1ccc(COc2ccc(Nc3ncnc4cnc(-c5ccc(CNc6cccnc6)o5)cc34)cc2)cc1 | 860 nM
O=C(Nc1ccc(-c2csc(-c3nc4ccccc4[nH]3)c2)cc1)Nc1ccc(Cl)c(Cl)c1 | 400 nM
N#Cc1cnc2cc(-c3cnc(CNCCN4CCOCC4)s3)ccc2c1Nc1ccc(Oc2ccccc2)cc1 | 730 nM
O=C(c1cc(-c2cccs2)[nH]n1)N1CCN(S(=O)(=O)c2ccc(Cl)s2)CC1 | 870 nM
